Biological target: CatSper channel complex (Homo sapiens, UniProt Q7RTX7+Q86XQ3+Q8NEC5+Q96P56)
Experiment: whole-cell patch clamp:[…] inhibits sirenin-induced ICatSper
Format: cell-based

Sequence of CatSper channel complex (Q8NEC5 whole entry): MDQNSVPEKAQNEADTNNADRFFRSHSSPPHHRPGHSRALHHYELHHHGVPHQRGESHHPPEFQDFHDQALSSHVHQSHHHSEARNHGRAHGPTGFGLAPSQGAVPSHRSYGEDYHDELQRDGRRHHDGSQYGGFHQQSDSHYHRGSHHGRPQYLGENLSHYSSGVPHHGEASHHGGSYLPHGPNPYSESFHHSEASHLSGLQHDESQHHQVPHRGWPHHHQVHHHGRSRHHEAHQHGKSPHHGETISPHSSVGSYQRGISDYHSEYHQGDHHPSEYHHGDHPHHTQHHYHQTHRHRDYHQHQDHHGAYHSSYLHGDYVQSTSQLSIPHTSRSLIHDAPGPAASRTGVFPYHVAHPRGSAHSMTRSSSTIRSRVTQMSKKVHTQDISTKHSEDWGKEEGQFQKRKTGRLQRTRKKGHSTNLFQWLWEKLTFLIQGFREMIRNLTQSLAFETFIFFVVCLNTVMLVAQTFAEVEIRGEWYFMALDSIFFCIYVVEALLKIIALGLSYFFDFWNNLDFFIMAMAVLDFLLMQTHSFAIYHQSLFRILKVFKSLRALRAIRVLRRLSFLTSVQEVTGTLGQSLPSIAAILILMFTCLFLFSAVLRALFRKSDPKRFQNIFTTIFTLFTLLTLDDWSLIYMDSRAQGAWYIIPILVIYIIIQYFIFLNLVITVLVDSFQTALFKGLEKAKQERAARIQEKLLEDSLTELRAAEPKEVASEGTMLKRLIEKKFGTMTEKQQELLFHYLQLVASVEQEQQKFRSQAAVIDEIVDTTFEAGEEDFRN
Sequence of CatSper channel complex (Q96P56 whole entry): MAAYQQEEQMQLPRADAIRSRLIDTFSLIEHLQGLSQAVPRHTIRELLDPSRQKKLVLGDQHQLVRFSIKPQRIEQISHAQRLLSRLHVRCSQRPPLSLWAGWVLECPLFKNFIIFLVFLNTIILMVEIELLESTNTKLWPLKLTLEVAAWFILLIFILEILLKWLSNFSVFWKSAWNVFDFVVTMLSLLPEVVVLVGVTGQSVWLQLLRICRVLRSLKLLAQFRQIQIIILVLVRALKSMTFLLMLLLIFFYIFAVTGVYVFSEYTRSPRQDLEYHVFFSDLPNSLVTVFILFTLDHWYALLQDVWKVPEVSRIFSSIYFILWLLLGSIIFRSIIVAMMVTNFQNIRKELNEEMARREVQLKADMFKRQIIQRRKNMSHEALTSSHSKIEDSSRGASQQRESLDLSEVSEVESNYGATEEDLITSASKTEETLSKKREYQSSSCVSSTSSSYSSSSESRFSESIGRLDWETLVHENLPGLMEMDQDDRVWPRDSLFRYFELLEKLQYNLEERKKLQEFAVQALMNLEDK
Sequence of CatSper channel complex (Q7RTX7 whole entry): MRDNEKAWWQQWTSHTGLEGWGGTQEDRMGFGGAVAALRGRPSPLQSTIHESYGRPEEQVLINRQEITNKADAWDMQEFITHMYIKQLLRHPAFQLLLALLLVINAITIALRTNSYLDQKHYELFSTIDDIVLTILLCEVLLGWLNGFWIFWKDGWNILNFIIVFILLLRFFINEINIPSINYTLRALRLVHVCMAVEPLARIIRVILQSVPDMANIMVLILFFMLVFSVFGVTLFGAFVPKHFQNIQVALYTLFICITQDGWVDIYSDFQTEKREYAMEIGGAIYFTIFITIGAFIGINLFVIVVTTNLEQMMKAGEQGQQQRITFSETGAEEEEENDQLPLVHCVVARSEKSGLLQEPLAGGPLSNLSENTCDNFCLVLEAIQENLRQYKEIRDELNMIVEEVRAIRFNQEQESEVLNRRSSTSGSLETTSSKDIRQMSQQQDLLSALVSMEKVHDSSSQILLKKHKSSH
Sequence of CatSper channel complex (Q86XQ3 whole entry): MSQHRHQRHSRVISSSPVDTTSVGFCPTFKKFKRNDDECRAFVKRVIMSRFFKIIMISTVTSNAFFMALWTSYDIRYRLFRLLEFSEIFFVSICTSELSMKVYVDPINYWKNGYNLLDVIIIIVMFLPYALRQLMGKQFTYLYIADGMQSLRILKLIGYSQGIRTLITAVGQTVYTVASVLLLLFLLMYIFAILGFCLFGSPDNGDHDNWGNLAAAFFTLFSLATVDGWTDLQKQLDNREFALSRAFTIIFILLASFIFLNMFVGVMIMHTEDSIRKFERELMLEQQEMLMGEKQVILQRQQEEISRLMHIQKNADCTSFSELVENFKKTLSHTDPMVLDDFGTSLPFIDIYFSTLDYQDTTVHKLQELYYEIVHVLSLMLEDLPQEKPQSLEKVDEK

- whole-cell patch clamp: 30 μM inhibits sirenin-induced ICatSper; FLIPR: 55% redu: 30 µM
Compound: COCC(=O)O[C@]1(CCN(C)CCCc2nc3ccccc3[nH]2)CCc2cc(F)ccc2[C@@H]1C(C)C [mibefradil]

From article PMC4761407 (ACS Chemical Biology, 2015)
